# Measurements: patent publication US12042472B2 (pHase Pharmaceuticals LLC, priority 2017, dated 2024)
# Assay: in vivo
# Settings: for concentration at 0.033 h: Day 1, hour 0.033, LLQ 1 ng/mL
# Protocol: Using a standard, by weight, randomization procedure, 21 male animals (weighing 3.25 to 3.73 kg at randomization), from a total of 36 male experimentally naïve New Zealand White Hra:(NZW)SPF albino rabbits (approximately 6 to 7 months of age), were assigned to the study as presented in Table 5.
# To induce an anaphylactic syndrome, animals in Groups 1 to 4 were administered horse serum (0.2μ sterile filtered) via subcutaneous (“SC”) injection at dose volume of 2 mL/animal, followed two days later by an intravenous (“IV”) injection at a dose volume of 2 mL/animal.
# Forty-one to 44 days following the beginning of the induction period, the animals were sedated by administration of 2 to 3 mg/kg via IM injection of acepromazine, 0.02 mg/kg via IM injection of buprenorphine and sevoflurane via inhalation.
# Following induction of anesthesia, all animals were placed in dorsal recumbency position and an incision was made to locate the right or left femoral artery. An arterial sheath was introduced and advanced into the isolated artery and used to monitor blood pressure. Additionally, an off midline cervical neck incision was made to locate and isolate the left or right external jugular vein for collection of blood and for emergency drug administration, as needed.
# Following induction of anesthesia and catheter placement, single or repeated challenge doses of 0.5 to 2 mL of filtered horse serum were administered intravenously to each animal in Groups 1 to 4.
# Prior to tablet administration, the mouth of the animal was wet with 0.5 mL of tap water and the mouth was held shut for 15 to 30 seconds to help dissolve the tablet. For IM administration, the injections were made in the right rear flank of each animal.
# Each 50 μL aliquot of standard, QC sample, and study sample was mixed with 200 μL of working internal standard solution (25 ng/mL in acetonitrile/methanol (50/50, v/v)). The sample was centrifuged, and a 200 μL aliquot of the resulting supernatant was transferred to a clean 96-well plate. The sample was evaporated and reconstituted with […] of water/formic acid (100/0.1, v/v). An aliquot was injected onto an LC-MS/MS system for analysis.
# The liquid chromatography system used an ACE 5 C18 column, 50×2.1 mm (5 μm particle size) with an isocratic flow consisting of water/formic acid (100/0.1, v/v) and methanol/formic acid (100/0.05, v/v) at a flow rate of 400 μL/minute. The analyte and internal standard were detected using an SCIEX API 5000 triple quadrupole LC-MS/MS system equipped with an ESI (TurboIonSpray®) ionization source operated in the positive ion mode.
# The lower limit of quantitation was 1 ng/ml and a linear 1/x2 weighting regression analysis was used.
# Concentrations less than the lower limit of quantitation (LLOQ, <1.00 ng/mL) were reported as and set to zero. For each animal, the following pharmacokinetic parameters were determined: maximum observed plasma concentration (Cmax), time of maximum observed plasma concentration (Tmax), and area under the plasma concentration-time curve (AUC).
# The formulation ratio was calculated using the following formula: Formulation Ratio=Mean AUC0-60 min Buccal Citrate÷Mean AUC0-60 min Buccal No citrate. The Induced Anaphylaxis to Non-induced anaphylaxis ratio was calculated using the following formula: Induced Anaphylaxis:Non-Induced Anaphylaxis=Mean AUC0-60 min Induced Anaphylaxis IM÷Mean AUC0-60 min Non-induced Anaphylaxis IM. Relative bioavailability (expressed as a percent) was calculated using the following formula: Relative Bioavailability=[AUC0-60 min/DoseBuccal (citrate and/or no citrate)]÷[AUC0-60 min/DoseIntramuscular (induced and/or non-induced)]*100.
compound,measurement,setting,value
CNC[C@H](O)c1ccc(O)c(O)c1 [Epinephrine],"Concentration (ng/mL), plasma epinephrine","Group 7, dose 0.3 mg, subject 701, male, Day 1, hour 0.333, LLQ 2 ng/mL",BLQ
same,concentration at 0 h,"male, New Zealand White Hra:(NZW)SPF, rabbit, plasma, intramuscular, 0.3 mg, Concentration (ng/mL), plasma epinephrine, Group 7, dose 0.3 mg, subject 701, male, Day 1, hour 0, LLQ 2 ng/mL",2.48 ng/mL
same,concentration at 0.033 h,"male, New Zealand White Hra:(NZW)SPF, rabbit, plasma, intramuscular, 0.3 mg, Concentration (ng/mL), plasma epinephrine, Group 7, dose 0.3 mg, subject 701, male",2.75 ng/mL
same,concentration at 0.083 h,"male, New Zealand White Hra:(NZW)SPF, rabbit, plasma, intramuscular, 0.3 mg, Concentration (ng/mL), plasma epinephrine, Group 7, dose 0.3 mg, subject 701, male, Day 1, hour 0.083, LLQ 2 ng/mL",4.32 ng/mL
same,concentration at 0.125 h,"male, New Zealand White Hra:(NZW)SPF, rabbit, plasma, intramuscular, 0.3 mg, Concentration (ng/mL), plasma epinephrine, Group 7, dose 0.3 mg, subject 701, male, Day 1, hour 0.125, LLQ 2 ng/mL",5.73 ng/mL
same,concentration at 0.167 h,"male, New Zealand White Hra:(NZW)SPF, rabbit, plasma, intramuscular, 0.3 mg, Concentration (ng/mL), plasma epinephrine, Group 7, dose 0.3 mg, subject 701, male, Day 1, hour 0.167, LLQ 2 ng/mL",4.76 ng/mL
same,concentration at 0.25 h,"male, New Zealand White Hra:(NZW)SPF, rabbit, plasma, intramuscular, 0.3 mg, Concentration (ng/mL), plasma epinephrine, Group 7, dose 0.3 mg, subject 701, male, Day 1, hour 0.25, LLQ 2 ng/mL",2.44 ng/mL
same,concentration at 0.5 h,"male, New Zealand White Hra:(NZW)SPF, rabbit, plasma, intramuscular, 0.3 mg, Concentration (ng/mL), plasma epinephrine, Group 7, dose 0.3 mg, subject 701, male, Day 1, hour 0.5, LLQ 2 ng/mL",2.06 ng/mL
same,concentration at 0.75 h,"male, New Zealand White Hra:(NZW)SPF, rabbit, plasma, intramuscular, 0.3 mg, Concentration (ng/mL), plasma epinephrine, Group 7, dose 0.3 mg, subject 701, male, Day 1, hour 0.75, LLQ 2 ng/mL",2.84 ng/mL
same,concentration at 1 h,"male, New Zealand White Hra:(NZW)SPF, rabbit, plasma, intramuscular, 0.3 mg, Concentration (ng/mL), plasma epinephrine, Group 7, dose 0.3 mg, subject 701, male, Day 1, hour 1, LLQ 2 ng/mL",3.1 ng/mL
same,concentration at 0 h,"male, New Zealand White Hra:(NZW)SPF, rabbit, plasma, intramuscular, 0.3 mg, Concentration (ng/mL), plasma epinephrine, Group 7, dose 0.3 mg, subject 703, male, Day 1, hour 0, LLQ 1 ng/mL",1.92 ng/mL
same,concentration at 0.033 h,"male, New Zealand White Hra:(NZW)SPF, rabbit, plasma, intramuscular, 0.3 mg, Concentration (ng/mL), plasma epinephrine, Group 7, dose 0.3 mg, subject 703, male",8.06 ng/mL
same,concentration at 0.083 h,"male, New Zealand White Hra:(NZW)SPF, rabbit, plasma, intramuscular, 0.3 mg, Concentration (ng/mL), plasma epinephrine, Group 7, dose 0.3 mg, subject 703, male, Day 1, hour 0.083, LLQ 1 ng/mL",6.6 ng/mL
same,concentration at 0.125 h,"male, New Zealand White Hra:(NZW)SPF, rabbit, plasma, intramuscular, 0.3 mg, Concentration (ng/mL), plasma epinephrine, Group 7, dose 0.3 mg, subject 703, male, Day 1, hour 0.125, LLQ 1 ng/mL",3.53 ng/mL
same,concentration at 0.167 h,"male, New Zealand White Hra:(NZW)SPF, rabbit, plasma, intramuscular, 0.3 mg, Concentration (ng/mL), plasma epinephrine, Group 7, dose 0.3 mg, subject 703, male, Day 1, hour 0.167, LLQ 1 ng/mL",2.32 ng/mL
same,concentration at 0.25 h,"male, New Zealand White Hra:(NZW)SPF, rabbit, plasma, intramuscular, 0.3 mg, Concentration (ng/mL), plasma epinephrine, Group 7, dose 0.3 mg, subject 703, male, Day 1, hour 0.25, LLQ 1 ng/mL",3.5 ng/mL
same,concentration at 0.333 h,"male, New Zealand White Hra:(NZW)SPF, rabbit, plasma, intramuscular, 0.3 mg, Concentration (ng/mL), plasma epinephrine, Group 7, dose 0.3 mg, subject 703, male, Day 1, hour 0.333, LLQ 1 ng/mL",3.78 ng/mL
same,concentration at 0.5 h,"male, New Zealand White Hra:(NZW)SPF, rabbit, plasma, intramuscular, 0.3 mg, Concentration (ng/mL), plasma epinephrine, Group 7, dose 0.3 mg, subject 703, male, Day 1, hour 0.5, LLQ 1 ng/mL",2.86 ng/mL
same,concentration at 0.75 h,"male, New Zealand White Hra:(NZW)SPF, rabbit, plasma, intramuscular, 0.3 mg, Concentration (ng/mL), plasma epinephrine, Group 7, dose 0.3 mg, subject 703, male, Day 1, hour 0.75, LLQ 1 ng/mL",5.36 ng/mL
same,concentration at 1 h,"male, New Zealand White Hra:(NZW)SPF, rabbit, plasma, intramuscular, 0.3 mg, Concentration (ng/mL), plasma epinephrine, Group 7, dose 0.3 mg, subject 703, male, Day 1, hour 1, LLQ 1 ng/mL",5.17 ng/mL
same,concentration at 0 h,"male, New Zealand White Hra:(NZW)SPF, rabbit, plasma, intramuscular, 0.3 mg, Concentration (ng/mL), plasma epinephrine, Subject Group 3, dose 0.3 mg, male rabbits, Day 1, Hour 0",2.29 ng/mL
same,concentration at 1 h,"male, New Zealand White Hra:(NZW)SPF, rabbit, plasma, other: sublingual/buccal tablet, 35 mg, Concentration (ng/mL), plasma epinephrine, Group 2, dose 35 mg, subject 306, male, Day 1, hour 1, LLQ 2 ng/mL",10.6 ng/mL
